Source: ChEMBL document CHEMBL1201862, “PubChem BioAssay data set” (2004)
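Five compound concentrations were applied to cells in 96-well plates for 48 hours; endpoints were derived by simple linear interpolation of the resulting dose-response curve. GI50: concentration for 50% inhibition of growth.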 Calls of active or inactive are those of the source. No stated cut-off is given here; in the data, active = GI50 up to about 1.1 µM and inactive = higher.

Assays:
Assay in all cases: NCI anticancer screen, dose series, 48 h
[1] = test system: HL-60
[2] = test system: OVCAR-8
[3] = test system: 786-0
[4] = test system: RXF 631
[5] = test system: DMS-273
[6] = test system: M19-MEL
[7] = test system: SF-295
[8] = test system: LXFL 529
[9] = test system: OVCAR-4
[10] = test system: RPMI-8226
[11] = test system: CAKI-1
[12] = test system: DMS-114
[13] = test system: HCT-15
[14] = test system: OVCAR-5
[15] = test system: CCRF-CEM
[16] = test system: SNB-78
[17] = test system: SF-268
[18] = test system: SK-MEL-28
[19] = test system: TK-10
[20] = test system: HOP-92
[21] = test system: MOLT-4
[22] = test system: Malme-3M
[23] = test system: U-251
[24] = test system: EKVX
[25] = test system: SNB-19
[26] = test system: HCC 2998
[27] = test system: SF-539
[28] = test system: KM12
[29] = test system: UO-31
[30] = test system: NCI-H23
[31] = test system: A498
[32] = test system: COLO 205
[33] = test system: ACHN
[34] = test system: SW-620
[35] = test system: KM-20L2
[36] = test system: NCI-H226
[37] = test system: HOP-62
[38] = test system: RXF 393
[39] = test system: SN12C
[40] = test system: OVCAR-3
[41] = test system: NCI-H460
[42] = test system: DLD-1
[43] = test system: A549
[44] = test system: K562
[45] = test system: HT-29
[46] = test system: SR
[47] = test system: HOP-18
[48] = test system: IGROV-1
[49] = test system: SNB-75
[50] = test system: SK-MEL-2
[51] = test system: HCT-116
[52] = test system: M14
[53] = test system: SK-MEL-5
[54] = test system: LOX IMVI
[55] = test system: SK-OV-3
[56] = test system: UACC-62
[57] = test system: NCI-H522
[58] = test system: UACC-257
[59] = test system: XF498

With `Cc1ccc(NC(=O)C(=O)C2C(=O)NC(=O)NC2=O)c(C)c1` the GI50 [1] was > 100 µM (inactive), the GI50 [2] was > 100 µM (inactive) and the GI50 [3] was > 100 µM (inactive). For the same compound, the GI50 [4] was > 100 µM (inactive), the GI50 [5] was > 100 µM (inactive) and the GI50 [6] was > 100 µM (inactive). The GI50 [7] was > 100 µM (inactive), the GI50 [8] was > 100 µM (inactive) and the GI50 [9] was > 100 µM (inactive). The GI50 [10] was > 100 µM (inactive), the GI50 [11] was > 100 µM (inactive) and the GI50 [12] was > 100 µM (inactive). For the same compound, the GI50 [13] was greater than 100 µM, the GI50 [14] was > 100 µM (inactive) and the GI50 [15] was > 100 µM (inactive). For the same compound, the GI50 [16] was > 100 µM (inactive), the GI50 [17] was > 100 µM (inactive) and the GI50 [18] was > 100 µM (inactive). The GI50 [19] was > 100 µM (inactive), the GI50 [20] was > 100 µM (inactive) and the GI50 [21] was > 100 µM (inactive). The GI50 [22] was > 100 µM (inactive), the GI50 [23] was > 100 µM (inactive) and the GI50 [24] was > 100 µM (inactive). For the same compound, the GI50 [25] was > 100 µM (inactive), the GI50 [26] was > 100 µM (inactive) and the GI50 [27] was > 100 µM (inactive). For the same compound, the GI50 [28] was > 100 µM (inactive), the GI50 [29] was > 100 µM (inactive) and the GI50 [30] was > 100 µM (inactive). The GI50 [31] was > 100 µM (inactive), the GI50 [32] was 13.8 µM (inactive) and the GI50 [33] was > 100 µM (inactive). The GI50 [34] was > 100 µM (inactive), the GI50 [35] was > 100 µM (inactive) and the GI50 [36] was 17.5 µM (inactive). The GI50 [37] was > 100 µM (inactive), the GI50 [38] was > 100 µM (inactive) and the GI50 [39] was 14.9 µM (inactive). The GI50 [40] was > 100 µM (inactive), the GI50 [41] was > 100 µM (inactive) and the GI50 [42] was > 100 µM (inactive). The GI50 [43] was > 100 µM (inactive), the GI50 [44] was > 100 µM (inactive) and the GI50 [45] was > 100 µM (inactive). The GI50 [46] was > 100 µM (inactive), the GI50 [47] was > 100 µM (inactive) and the GI50 [48] was > 100 µM (inactive). The GI50 [49] was > 100 µM (inactive), the GI50 [50] was > 100 µM (inactive) and the GI50 [51] was > 100 µM (inactive). For the same compound, the GI50 [52] was > 100 µM (inactive), the GI50 [53] was > 100 µM (inactive) and the GI50 [54] was > 100 µM (inactive). For the same compound, the GI50 [55] was > 100 µM (inactive), the GI50 [56] was > 100 µM (inactive) and the GI50 [57] was > 100 µM (inactive). For the same compound, the GI50 [58] was > 100 µM (inactive).
In the case of `COc1cc([C@H]2Oc3c(c(O)cc4oc(-c5ccccc5)cc(=O)c34)O[C@@H]2CO)ccc1O`, the GI50 [1] is reported as 13.7 µM (inactive), the GI50 [3] is reported as 21.9 µM (inactive) and the GI50 [4] is reported as 23.8 µM (inactive). The GI50 [5] was 8.83 µM (inactive), the GI50 [6] was 24.7 µM (inactive) and the GI50 [8] was 24.3 µM (inactive). For the same compound, the GI50 [9] was 23.8 µM (inactive), the GI50 [10] was 7.53 µM (inactive) and the GI50 [11] was 63.2 µM (inactive). For the same compound, the GI50 [12] was 20 µM (inactive), the GI50 [15] was 4.34 µM (inactive) and the GI50 [16] was > 100 µM (inactive). For the same compound, the GI50 [17] was 11.7 µM (inactive), the GI50 [18] was 45.8 µM (inactive) and the GI50 [20] was 31.7 µM (inactive). For the same compound, the GI50 [21] was > 10 µM (inactive), the GI50 [22] was 24.2 µM (inactive) and the GI50 [26] was 25.6 µM (inactive). The GI50 [27] was > 100 µM (inactive), the GI50 [29] was 31.9 µM (inactive) and the GI50 [30] was 38.5 µM (inactive). The GI50 [31] was 67 µM (inactive), the GI50 [32] was 31.8 µM (inactive) and the GI50 [36] was 71.1 µM (inactive). The GI50 [37] was > 100 µM (inactive), the GI50 [39] was 35.9 µM (inactive) and the GI50 [41] was 5.14 µM (inactive). The GI50 [42] was 16.6 µM (inactive), the GI50 [59] was 25.4 µM (inactive) and the GI50 [44] was 21.6 µM (inactive). For the same compound, the GI50 [46] was 8.87 µM (inactive), the GI50 [48] was 51.8 µM (inactive) and the GI50 [49] was 28.9 µM (inactive). The GI50 [50] was 22.8 µM (inactive), the GI50 [51] was 21.5 µM (inactive) and the GI50 [52] was 17.5 µM (inactive). For the same compound, the GI50 [55] was 84.9 µM (inactive), the GI50 [56] was 29.9 µM (inactive) and the GI50 [57] was 19.1 µM (inactive).
For `O=C1c2ccccc2C(=O)c2[nH]c(Cc3ccc(F)cc3)nc21`, the GI50 [1] was 17.9 µM (inactive), the GI50 [2] was 17.4 µM (inactive) and the GI50 [3] was 16.9 µM (inactive). The GI50 [4] was 15.9 µM (inactive), the GI50 [5] was 18.1 µM (inactive) and the GI50 [6] was 16.9 µM (inactive). The GI50 [7] was 16.7 µM (inactive), the GI50 [8] was 26.4 µM (inactive) and the GI50 [9] was 14.8 µM (inactive). The GI50 [10] was 22.8 µM (inactive), the GI50 [11] was 19.7 µM (inactive) and the GI50 [12] was > 10 µM (inactive). The GI50 [13] was 6.44 µM, the GI50 [15] was 24.6 µM (inactive) and the GI50 [17] was 21.8 µM (inactive). The GI50 [18] was 18.7 µM (inactive), the GI50 [19] was 34.1 µM (inactive) and the GI50 [20] was 19.9 µM (inactive). For the same compound, the GI50 [21] was 24.8 µM (inactive), the GI50 [22] was 14.5 µM (inactive) and the GI50 [23] was 22.6 µM (inactive). The GI50 [24] was 19.2 µM (inactive), the GI50 [25] was 24.4 µM (inactive) and the GI50 [26] was 26.2 µM (inactive). For the same compound, the GI50 [27] was 17.8 µM (inactive), the GI50 [28] was 16.2 µM (inactive) and the GI50 [29] was 29.6 µM (inactive). The GI50 [30] was > 10 µM (inactive), the GI50 [32] was 22.1 µM (inactive) and the GI50 [33] was 14.2 µM (inactive). For the same compound, the GI50 [34] was 14.5 µM (inactive), the GI50 [35] was 17.1 µM (inactive) and the GI50 [36] was 22.8 µM (inactive). The GI50 [37] was 21.9 µM (inactive), the GI50 [38] was 6.97 µM (inactive) and the GI50 [39] was 22 µM (inactive). For the same compound, the GI50 [40] was 5.4 µM (inactive), the GI50 [41] was 15.2 µM (inactive) and the GI50 [42] was 4.01 µM (inactive). The GI50 [59] was 17.2 µM (inactive), the GI50 [43] was 19.5 µM (inactive) and the GI50 [44] was 37.2 µM (inactive). The GI50 [45] was 15.9 µM (inactive), the GI50 [46] was 21.6 µM (inactive) and the GI50 [48] was 12.5 µM (inactive). For the same compound, the GI50 [49] was 20.9 µM (inactive), the GI50 [50] was 13.9 µM (inactive) and the GI50 [51] was 19.5 µM (inactive). The GI50 [52] was 15.3 µM (inactive), the GI50 [56] was 15.5 µM (inactive) and the GI50 [57] was 14.5 µM (inactive). For the same compound, the GI50 [58] was 16.3 µM (inactive).
For `C=C1CCCC2[C@](C)(CC3=C(O)C(=O)C=C(OC)C3=O)[C@@H](C)CC[C@]12C` (stereo partly drawn), the GI50 [1] was 2.4 µM (inactive), the GI50 [2] was 4.41 µM (inactive) and the GI50 [3] was 2.64 µM (inactive). For the same compound, the GI50 [4] was 9.62 µM (inactive), the GI50 [6] was 1.81 µM (inactive) and the GI50 [7] was 2.51 µM (inactive). The GI50 [8] was 6.04 µM (inactive), the GI50 [9] was 5.65 µM (inactive) and the GI50 [10] was 2.74 µM (inactive). For the same compound, the GI50 [11] was 3.62 µM (inactive), the GI50 [12] was 1.99 µM (inactive) and the GI50 [13] was 2.71 µM. For the same compound, the GI50 [15] was 2.36 µM (inactive), the GI50 [17] was 4.31 µM (inactive) and the GI50 [18] was 3.99 µM (inactive). The GI50 [19] was 7.16 µM (inactive), the GI50 [22] was 2.9 µM (inactive) and the GI50 [23] was 4.06 µM (inactive). The GI50 [24] was 6.28 µM (inactive), the GI50 [26] was 7.89 µM (inactive) and the GI50 [27] was 2.79 µM (inactive). For the same compound, the GI50 [28] was 2.72 µM (inactive), the GI50 [30] was 3.05 µM (inactive) and the GI50 [31] was 6.27 µM (inactive). For the same compound, the GI50 [32] was 7.35 µM (inactive), the GI50 [33] was 4.06 µM (inactive) and the GI50 [34] was 3.01 µM (inactive). The GI50 [35] was 4.24 µM (inactive), the GI50 [38] was 2.73 µM (inactive) and the GI50 [39] was 10.5 µM (inactive). The GI50 [40] was 3.53 µM (inactive), the GI50 [41] was 2.8 µM (inactive) and the GI50 [42] was 7.18 µM (inactive). The GI50 [59] was 16.7 µM (inactive), the GI50 [43] was 2.86 µM (inactive) and the GI50 [44] was 4.07 µM (inactive). For the same compound, the GI50 [45] was 10.9 µM (inactive), the GI50 [47] was 1.7 µM (inactive) and the GI50 [48] was 3.22 µM (inactive). The GI50 [49] was 3.94 µM (inactive), the GI50 [50] was 2.45 µM (inactive) and the GI50 [51] was 3.71 µM (inactive). The GI50 [52] was 1.81 µM (inactive), the GI50 [53] was 2.42 µM (inactive) and the GI50 [54] was 4.97 µM (inactive). For the same compound, the GI50 [55] was 12.6 µM (inactive), the GI50 [56] was 2.22 µM (inactive) and the GI50 [57] was 6.82 µM (inactive). The GI50 [58] was 3.3 µM (inactive).
